From patent publication US8470855B2, “Dual-use peptidase inhibitors as prodrugs for a therapy of inflammatory and other diseases” (IMTM GmbH, priority 2005, dated 2013)

Tests used:
[1] = target: T1, APN (Leucin aminopeptidase, microsomal, EC 3.4.11.2) (Sus scrofa, UniProt P15145); assay: IC50 determination against APN after reduction of the prodrugs with DTT; type: biochemical; conditions: after release (reduction with DTT) of the inhibitors from the prodrugs; pig kidney enzyme, substrate Leu-AMC, pH 7.2, 30° C.; read-out: APN (IC 50 [M])
T1 construct: purchased Sigma; host or cells: pig kidney (tissue-derived)
T1 sequence (P15145 1-963): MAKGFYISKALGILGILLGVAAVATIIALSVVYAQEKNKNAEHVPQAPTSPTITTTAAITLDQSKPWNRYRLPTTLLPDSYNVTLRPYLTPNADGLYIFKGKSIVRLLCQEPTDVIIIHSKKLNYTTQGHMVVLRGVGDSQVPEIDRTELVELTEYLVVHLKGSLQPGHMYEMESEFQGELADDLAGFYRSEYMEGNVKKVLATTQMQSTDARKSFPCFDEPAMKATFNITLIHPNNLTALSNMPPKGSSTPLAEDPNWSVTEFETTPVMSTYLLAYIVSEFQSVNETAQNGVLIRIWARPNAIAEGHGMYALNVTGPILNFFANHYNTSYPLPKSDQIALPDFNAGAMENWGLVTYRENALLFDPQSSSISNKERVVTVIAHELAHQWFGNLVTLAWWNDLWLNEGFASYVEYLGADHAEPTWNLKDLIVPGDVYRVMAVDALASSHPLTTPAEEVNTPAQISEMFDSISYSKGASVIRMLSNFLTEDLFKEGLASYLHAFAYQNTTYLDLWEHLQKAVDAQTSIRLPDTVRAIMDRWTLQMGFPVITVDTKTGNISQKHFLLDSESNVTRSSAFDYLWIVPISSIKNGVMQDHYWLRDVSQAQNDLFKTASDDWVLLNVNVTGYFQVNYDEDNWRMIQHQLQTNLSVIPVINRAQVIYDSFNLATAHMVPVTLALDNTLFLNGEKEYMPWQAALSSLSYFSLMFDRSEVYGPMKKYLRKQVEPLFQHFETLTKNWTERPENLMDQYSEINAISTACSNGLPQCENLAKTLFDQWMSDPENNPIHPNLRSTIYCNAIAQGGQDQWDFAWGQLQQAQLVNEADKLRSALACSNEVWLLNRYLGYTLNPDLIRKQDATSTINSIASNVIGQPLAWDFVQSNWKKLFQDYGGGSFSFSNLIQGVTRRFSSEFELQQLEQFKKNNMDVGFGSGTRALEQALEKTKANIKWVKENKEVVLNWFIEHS
Description: (§1) Process of the Reduction with DTT:
(§2) Same volumes of the 7·10^−2 M solution of the inhibitor in water or DMF and a 0.35 M aqueous DTT-solution (5 equivalents) were agitated 4 hours at RT.
(§3) Subsequently to the reductive treatment of the prodrugs the IC50-values were estimated using the following process:
(§4) Determination of the IC50-Values after Reduction:
Leucin aminopeptidase, microsomal, from pig kidney (EC 3.4.11.2).
Suspension in 3.5 M (NH4)2SO4-solution (Sigma).
Substrate: Leu-AMC, [S]=1.5·10^−4 M (2 Km) in the reaction batch.
Buffer: 40 mM Tris/HCl-buffer, pH 7.2 in the reaction batch. […]
(§5) 60 μl of these inhibitor solutions each or water (standard), were incubated with 80 μl of the according diluted enzymes in buffer for 15 minutes at 30° C. and subsequently 60 μl of the according AMC-substrate in water (total volume 200 μl) were added. The release of the 7-Amino-4-methyl-cumarin was traced continuously over a period of 20 minutes at 30° C. using a fluorence-pladt-reader NOVOstar (BMG Labtechnologies). The enzyme concentration was chosen to give a linear increase of the fluorescence during the measuring period.
The excitation- and emission-wavelengths, respectively, were 390 and 460 nm. […] The turn-over rates (increase of fluorescence/minutes) were plotted against the concentration of the inhibitor and the IC50-values were calculated using the computer program GraFit. […]

[2] = target: T2, Dipeptidyl peptidase IV (EC 3.4.14.5.) (Sus scrofa, UniProt P22411); assay: IC50 determination against DP IV after reduction of the prodrugs with DTT; type: biochemical; conditions: after release (reduction with DTT) of the inhibitors from the prodrugs; pig kidney enzyme, substrate Ala-Pro-AMC, pH 7.6, 30° C.; read-out: DP IV (IC 50 [M])
T2 construct: purchased Sigma; host or cells: pig kidney (tissue-derived)
T2 sequence (P22411 whole entry): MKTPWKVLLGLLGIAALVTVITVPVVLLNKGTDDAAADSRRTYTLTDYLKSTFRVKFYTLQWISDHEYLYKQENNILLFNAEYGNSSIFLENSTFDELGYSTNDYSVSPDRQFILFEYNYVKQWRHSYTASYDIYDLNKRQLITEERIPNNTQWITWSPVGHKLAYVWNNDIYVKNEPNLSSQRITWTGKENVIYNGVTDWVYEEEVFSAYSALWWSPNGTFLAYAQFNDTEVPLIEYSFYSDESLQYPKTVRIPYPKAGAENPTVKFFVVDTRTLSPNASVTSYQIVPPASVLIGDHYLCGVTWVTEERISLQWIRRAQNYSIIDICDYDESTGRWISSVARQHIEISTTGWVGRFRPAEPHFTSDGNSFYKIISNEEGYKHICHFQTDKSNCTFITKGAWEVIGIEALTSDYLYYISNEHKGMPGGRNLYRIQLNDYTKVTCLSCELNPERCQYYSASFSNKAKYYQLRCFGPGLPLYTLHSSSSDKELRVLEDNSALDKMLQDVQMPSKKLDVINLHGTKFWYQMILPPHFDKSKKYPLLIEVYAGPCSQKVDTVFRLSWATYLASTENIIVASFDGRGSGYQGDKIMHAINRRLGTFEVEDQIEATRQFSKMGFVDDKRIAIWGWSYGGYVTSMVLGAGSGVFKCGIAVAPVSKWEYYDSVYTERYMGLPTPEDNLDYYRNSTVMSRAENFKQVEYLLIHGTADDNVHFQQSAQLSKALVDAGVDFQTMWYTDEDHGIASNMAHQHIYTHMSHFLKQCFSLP
Description: as §1, §2, §3, §4
Dipeptidyl peptidase IV from pig kidney (EC 3.4.14.5.), lyophilisated powder (Sigma).
Substrate: Ala-Pro-AMC, [S]=3·10^−5 M (2 Km) in the reaction batch.
Buffer: 40 mM Tris/HCl-buffer, pH 7.6, I=0.125 in the reaction batch.
By dilution with water 10 to 12 solutions with defined inhibitor concentration were prepared from the reduction batch. These were selected from a relevant concentration range, i.e. between complete inhibition and non-influenced enzyme activity.
as §5, with “period. […]” for “period.”

IC50 [1] [M]	SMILES	IC50 [2] [M]
3.02e-07	CCCCC[C@H](CC(=O)NO)C(=O)N[C@H](C(=O)N1CCC[C@H]1CO)C(C)C [Actinonine, actinonine]	
	NC(CCCCNC(=O)OCc1ccc([N+](=O)[O-])cc1)C(=O)N1CCSC1 (centres unmarked) [Lys[Z(NO2)]-thiazolidide, H-Lys[Z(NO2)]-thiazolidide]	4.34e-07
